This note sets out measurements from the METLIN SMRT retention time set (Domingo-Almenara et al. 2019).

The data set in a line: gradient 5% acetonitrile 3 min, to 50% in 2 min, to 85% in 15 min, held 3 min, 100 µL/min. Particulars: column: Zorbax Extend-C18 2.1 x 50 mm; eluents: water / acetonitrile, 0.1% formic acid. Put shortly:
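Retention times of pure standards were taken from adduct peaks that were selected by computer and manually inspected. Over 3 months, mixtures of ~100 molecules were run by HPLC–quadrupole time-of-flight mass spectrometry in positive and negative ionization mode. The Zorbax Extend-C18 column (2.1 × 50 mm, 1.8 μm) ran at 100 μL/min in water and acetonitrile, each containing 0.1% formic acid, with 40 μL dead volume and 900 μL dwell volume.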
Compound `Cc1nc(-c2ccc3c(c2)CCN3C(=O)COc2ccc(F)cc2)cs1` yielded an RP-LC retention time of 960 s.

`O=C(NCCCN1CCCC1=O)C1CCN(c2cncnc2N2CCOCC2)CC1` had an RP-LC retention time of 535 s. As for `O=C(C(=O)N1CCN(C2CCCCC2)CC1)c1ccc[nH]1`, the figure is 588 s. The figure for `O=C(CN1C[C@H]2C[C@H](C1)[C@H]1CCCC(=O)N1C2)NCC1CCCCC1` is 612 s; for `COc1cccc(-n2nc(-c3nc(-c4ccccn4)no3)c3ccccc3c2=O)c1` it is 1020 s; for `COCc1noc(CC2CCOC3(CCN(Cc4sccc4C)CC3)C2)n1` (stereo not given) it is 636 s.

In turn, `CCCN(CCC)C(=O)C(CCC(=O)O)NC(=O)c1ccccc1` (stereo not given) displayed an RP-LC retention time of 822 s. `COc1cc(Nc2c(C(=O)N3CCCC(C)C3)cnc3nc(C)ccc23)cc(OC)c1` (stereo not given) showed an RP-LC retention time of 657 s.

In turn, `CCN1CCN(C(=O)CCC2CCCN(c3cc(NC4CC4)ncn3)C2)CC1` (stereo not given) gave an RP-LC retention time of 555 s.

In turn, `COCCOC1CCC12CCN(C(=O)c1cn[nH]c1)CC2` (stereo not given) gave an RP-LC retention time of 617 s. In turn, `COc1ccc(N2CCN(c3cc(SCC(=O)Nc4ccc(C(C)C)cc4)ncn3)CC2)cc1` registered an RP-LC retention time of 1110 s. The figure for `Cn1c(C2CCN(C(=O)Cc3ccc(Cl)cc3)C2)nc2ccncc21` (stereo not given) is 551 s; for `CC(Oc1ccc(=O)n(-c2ccc(F)cc2)n1)C(=O)Nc1ccc(Cl)cc1` (stereo not given) it is 845 s. The figure for `O=C(NCC1CCN(c2ncccn2)CC1)c1ccc(Br)o1` is 647 s. The figure for `O=C(Nc1cc(F)ccc1F)C1CCCN(c2nc3ccccc3nc2C(F)(F)F)C1` (stereo not given) is 1270 s; for `COCc1cc(=O)n(CC(=O)Nc2ccccc2F)c(N2CCOCC2)n1` it is 789 s. `Cc1ccc(N2CCC(NC(=O)Nc3ccccc3C)C2=O)cc1C` (stereo not given): the RP-LC retention time is 875 s. `CCCn1c(=O)sc2cc(S(=O)(=O)N3CCC(C(=O)NC(C)C)CC3)ccc21` showed an RP-LC retention time of 818 s. In turn, `CC(C)c1cc(C(=O)Nc2ccc(Cl)cc2)nn1C1CCS(=O)(=O)C1` (stereo not given) had an RP-LC retention time of 936 s. As for `Cc1ccc(Nc2nc(C(=O)N3CCN(S(C)(=O)=O)CC3)cs2)c(C)c1`, the figure is 752 s.

As to `COc1ccc(CN2CC(C(=O)NC3(c4nc(C)no4)CCCCC3)CC2=O)cc1` (stereo not given), the RP-LC retention time was determined as 706 s. Compound `COc1ccc(N2CCN(c3cc(SCC(=O)Nc4ccc(C)cc4Cl)ncn3)CC2)cc1` came in with an RP-LC retention time of 1200 s. The figure for `Cc1cccc(NC(=O)CN2C(=O)CC(C)S(=O)(=O)c3ccccc32)c1C` (stereo not given) is 789 s. The figure for `COCCOc1ccc2c(n1)CCN(C(=O)NCCC(C)C)C2` is 762 s; for `Cc1cc2c(c(=O)n(-c3ccc(F)cc3)c(=O)n2CC(=O)Nc2ccc(Br)cc2)n1C` it is 932 s. As for `COc1cc2oc(=O)cc(C)c2cc1[N+](=O)[O-]`, the RP-LC retention time came to 764 s. As for `COc1ccccc1N1CCN(c2ncc(S(=O)(=O)c3ccc(C)cc3)c(N)n2)CC1`, the figure is 955 s. As for `CCN(CC)S(=O)(=O)N1CCC(C(=O)Nc2ccc3sc(NC(=O)C(C)C)nc3c2)CC1`, the figure is 854 s; as for `CN(C)c1ccc(CNC(=O)C2CCN(S(=O)(=O)c3ccc4c(c3)NC(=O)CO4)CC2)cc1`, 598 s; as for `Cc1nnc2ccc(-c3noc(Cc4cccc(F)c4)n3)cn12`, 787 s. As for `Cc1ccc(O)c(CNC2CCN(c3ccc(C(=O)NC4CC4)cn3)C2)c1` (stereo not given), the figure is 560 s; as for `CN1CCC=C(C(=O)N2c3ccccc3Sc3ccc(Cl)cc32)C1`, 762 s. Regarding `COc1ccc(NC(=O)NC2CCN(C(=O)N3C[C@H]4C[C@H](C3)[C@H]3CCCC(=O)N3C4)CC2)cc1`, the RP-LC retention time was found to be 652 s.

Regarding `CCCC(Nc1nc(C(=O)OCC)nc2ccccc12)c1cccs1` (stereo not given), the RP-LC retention time turned out to be 933 s.

`COCCn1c(SCc2ccccc2Cl)nc2cc(C(=O)NC(C)C)ccc2c1=O` returned an RP-LC retention time of 1010 s.

The compound `Clc1cccc(CN2CCc3nc(N4CCN(c5ccccc5)CC4)ncc3C2)c1` showed an RP-LC retention time of 775 s.

Take `COCCC(=O)N1CC2CN(S(=O)(=O)c3ccc(C)cc3)CC(C1)O2`: the RP-LC retention time came out at 684 s. As for `COCCCNC(=O)c1c(OCC2CC2)cc(=O)n2c1CCCCC2`, the figure is 611 s.

The compound `CCn1cc(C)c(C(=O)O)c1CC(=O)N1CCCCC1` returned an RP-LC retention time of 694 s.

Consider `Cc1cc(C(F)F)n2nc(C(=O)Nc3ccc(C)c(C)c3)nc2n1`, for which the RP-LC retention time is 860 s. `CCCS(=O)(=O)N1CCC(CCOC)(NC(=O)C2CC2)CC1` showed an RP-LC retention time of 686 s. As for `Cc1cccc(NC(=O)C2CCCN(c3nc4ccccc4nc3C(F)(F)F)C2)c1C` (stereo not given), the figure is 830 s; as for `CCCN(CC1CCOC1)C(=O)Nc1c(F)cccc1F` (stereo not given), 731 s. The figure for `Cc1ccccc1CC(=O)N1CCC(n2c(=O)n(C)c3cncnc32)C1` (stereo not given) is 652 s.

In turn, `CC(=O)N1CCC(C(=O)Nc2cc(-c3nnc(C)o3)sc2C)CC1` displayed an RP-LC retention time of 648 s. As for `Cc1ccc(-c2cc3c(=O)n(Cc4nc(-c5ccc(F)cc5)no4)ccn3n2)cc1`, the figure is 1330 s. The figure for `O=C(NCc1ccc2c(c1)OCO2)C1CCCN(C(=O)c2cc(-c3ccccn3)n[nH]2)C1` (stereo not given) is 655 s. `O=C(Nc1cccc(-c2ccc(N3CCCC3)nn2)c1)Nc1c(F)cccc1F` registered an RP-LC retention time of 690 s. The figure for `CC(C)n1c(=O)c(Nc2cccc(C(F)(F)F)c2)nc2ccncc21` is 772 s. Take `Cc1ccc(-n2c(N3CCCC(C(=O)NC(C)c4cccnc4)C3)nc3ccsc3c2=O)cc1` (stereo not given): the RP-LC retention time was determined as 633 s. Take `O=C(NC(c1ccccc1)c1nnc(-c2ccccc2Cl)o1)c1ccco1` (stereo not given): the RP-LC retention time came to 908 s. The figure for `CCN1C(=O)c2cc(S(=O)(=O)Nc3ccccc3F)ccc2Oc2cccnc21` is 924 s; for `CCCC(C)C(=O)N1CCCN(C2=NS(=O)(=O)C(c3ccc(CC)cc3)=C2C)CC1` (stereo not given) it is 935 s; for `COCCCNc1nc(-c2ccc(OC)cc2)nc2ccccc12` it is 690 s. The compound `C=CCN1CC[C@]2(C)c3cc(O)ccc3CC1[C@@H]2C` yielded an RP-LC retention time of 594 s. The figure for `COc1ccc(-c2csc3c(=O)n(Cc4cccc(OC)c4)cnc23)cc1` is 1030 s. As for `COCCn1cc2c3c(cccc31)CN(C(=O)Nc1cc(OC)cc(OC)c1)CC2`, the figure is 926 s. For `O=C(CCNc1c(-c2cccc(F)c2)nc2cnccn12)NCc1cc(F)cc(F)c1`, the RP-LC retention time was 769 s.

In turn, `CCN1C(=O)c2cccnc2Sc2cc(NC(=O)C3CCC3)ccc21` returned an RP-LC retention time of 745 s. As for `CC(C)NC(=O)c1cc(=O)[nH]c2c(Cl)cccc12`, the figure is 737 s.
